Results taken from patent US20260297081A1, “COMPOUNDS AND METHODS OF TREATING CANCERS” (Cullgen Inc., priority 2023, published 2026).

How the values were obtained:
MCF7 cells = test: Anti-proliferation (viability) of MCF7 cells (Table 7, FIG. 2B); format: cell-based; settings: Homo sapiens, MCF7, MCF7 cells, 3-6 days, 10-point serial dilution; read-out: GI IC50 in MCF-7
CDK4 = CDK4 (Homo sapiens, UniProt P11802+Q16531); test: HiBiT detection of HiBiT-tagged CDK4 protein level in MCF7 cells, 16 hours (Table 8); format: cell-based; design: expressed in transfected cells; host or cells: MCF7; settings: MCF7 cells stably expressing HiBiT tagged target proteins; for activity at 0.01 µM: 10 nM, read-out: % CDK4 Relative Level (10 nM); for activity at 0.1 µM: 100 nM, read-out: % CDK4 Relative Level (100 nM)
Protocol: HiBiT detection system quantitatively measures total amounts of HiBiT-tagged proteins using a luminescent based method. MCF7 cells stably expressing HiBiT tagged target proteins were treated with heterobifunctional compounds at indicated concentrations for 16 hours, then lysed with Nano-Glo HiBiT Lytic detection reagents.

Sequence of CDK4 (P11802 whole entry): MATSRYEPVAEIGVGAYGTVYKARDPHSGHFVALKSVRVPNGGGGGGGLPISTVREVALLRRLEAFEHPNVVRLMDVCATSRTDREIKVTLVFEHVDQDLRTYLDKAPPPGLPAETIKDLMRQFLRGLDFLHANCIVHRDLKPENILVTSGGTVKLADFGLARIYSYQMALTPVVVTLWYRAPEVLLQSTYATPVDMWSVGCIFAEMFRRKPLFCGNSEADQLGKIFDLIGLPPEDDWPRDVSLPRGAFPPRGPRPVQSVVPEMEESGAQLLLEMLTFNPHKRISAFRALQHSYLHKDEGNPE
Sequence of CDK4 (P24385 whole entry partner): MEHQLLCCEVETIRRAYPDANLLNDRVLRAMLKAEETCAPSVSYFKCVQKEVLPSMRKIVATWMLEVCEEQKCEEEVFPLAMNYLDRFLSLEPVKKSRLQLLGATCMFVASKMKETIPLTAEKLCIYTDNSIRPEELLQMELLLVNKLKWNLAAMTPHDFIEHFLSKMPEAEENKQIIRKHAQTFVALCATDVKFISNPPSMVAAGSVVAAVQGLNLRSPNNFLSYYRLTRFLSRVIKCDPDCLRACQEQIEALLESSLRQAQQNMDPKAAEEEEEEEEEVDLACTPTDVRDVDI
Sequence of CDK4 (Q16531 2-1140 limits assumed): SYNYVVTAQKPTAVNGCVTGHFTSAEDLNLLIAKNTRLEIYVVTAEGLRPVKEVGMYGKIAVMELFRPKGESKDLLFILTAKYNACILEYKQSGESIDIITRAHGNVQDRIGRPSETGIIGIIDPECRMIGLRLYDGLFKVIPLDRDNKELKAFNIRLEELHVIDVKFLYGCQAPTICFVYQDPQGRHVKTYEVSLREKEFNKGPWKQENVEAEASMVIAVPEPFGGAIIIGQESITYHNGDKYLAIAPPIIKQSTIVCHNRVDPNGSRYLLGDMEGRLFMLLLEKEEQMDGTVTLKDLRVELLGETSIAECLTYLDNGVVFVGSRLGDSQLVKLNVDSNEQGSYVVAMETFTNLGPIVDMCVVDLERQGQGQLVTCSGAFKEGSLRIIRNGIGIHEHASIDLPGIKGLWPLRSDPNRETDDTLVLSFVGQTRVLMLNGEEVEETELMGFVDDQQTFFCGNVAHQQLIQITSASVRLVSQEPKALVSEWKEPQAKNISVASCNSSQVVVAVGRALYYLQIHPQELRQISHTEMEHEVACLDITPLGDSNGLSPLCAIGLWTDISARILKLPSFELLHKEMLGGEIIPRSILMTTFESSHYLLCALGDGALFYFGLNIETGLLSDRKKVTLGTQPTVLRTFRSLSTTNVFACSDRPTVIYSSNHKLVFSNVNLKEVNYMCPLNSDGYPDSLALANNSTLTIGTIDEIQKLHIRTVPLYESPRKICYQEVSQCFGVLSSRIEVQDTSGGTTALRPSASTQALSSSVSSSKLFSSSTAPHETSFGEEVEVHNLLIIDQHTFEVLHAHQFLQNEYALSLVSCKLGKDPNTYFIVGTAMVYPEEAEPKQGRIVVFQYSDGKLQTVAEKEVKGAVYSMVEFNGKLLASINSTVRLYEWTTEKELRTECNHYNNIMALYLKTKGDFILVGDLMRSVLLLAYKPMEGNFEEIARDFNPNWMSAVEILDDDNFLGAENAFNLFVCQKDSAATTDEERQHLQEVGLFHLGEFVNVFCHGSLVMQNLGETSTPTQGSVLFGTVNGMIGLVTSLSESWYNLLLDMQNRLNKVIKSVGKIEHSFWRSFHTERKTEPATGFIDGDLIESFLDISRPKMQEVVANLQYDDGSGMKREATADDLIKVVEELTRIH

IC50 (MCF7 cells) [nM] | activity at 0.01 µM (CDK4) [%] | activity at 0.1 µM (CDK4) [%] | Compound
< 50 | 55 to 85 | 55 to 85 | CC(=O)c1c(C)c2cnc(Nc3ccc(N4CCC(N(C)CC(=O)N5CC6(CC(Nc7nc(NC(C)C)ccc7C(=O)Nc7ccc(N(C)C)nn7)C6)C5)CC4)cn3)nc2n(C2CCCC2)c1=O [CPD-425, 2-((2-(N-(1-(6-((6-acetyl-8-cyclopentyl-5-methyl-7-oxo-7,8-dihydropyrido[2,3-d]pyrimidin-2-yl)amino)pyridin-3-yl)piperidin-4-yl)-N-methylglycyl)-2-azaspiro[3.3]heptan-6-yl)amino)-N-(6-(dimethylamino)pyridazin-3-yl)-6-(isopropylamino)nicotinamide]
< 50 | 55 to 85 | 55 to 85 | CC(=O)c1c(C)c2cnc(Nc3ccc(C(C)N4CCN(CC(=O)NC5CC6(C5)CC(Nc5nc(NC(C)C)ccc5C(=O)Nc5ccc(N(C)C)nn5)C6)CC4)cn3)nc2n(C2CCCC2)c1=O (stereo not drawn) [CPD-586, 2-((6-(2-(4-(1-(6-((6-acetyl-8-cyclopentyl-5-methyl-7-oxo-7,8-dihydropyrido[2,3-d]pyrimidin-2-yl)amino)pyridin-3-yl)ethyl)piperazin-1-yl)acetamido)spiro[3.3]heptan-2-yl)amino)-N-(6-(dimethylamino)pyridazin-3-yl)-6-(isopropylamino)nicotinamide]
> 100 | 55 to 85 | > 85 | CC(=O)c1c(C)c2cnc(Nc3ccc(CN4CCC(CC(=O)NC5CC6(C5)CC(Nc5nc(NC(C)C)ccc5C(=O)Nc5ccc(N(C)C)nn5)C6)C4)cn3)nc2n(C2CCCC2)c1=O (stereo not drawn) [CPD-596, 2-((6-(2-(1-((6-((6-acetyl-8-cyclopentyl-5-methyl-7-oxo-7,8-dihydropyrido[2,3-d]pyrimidin-2-yl)amino)pyridin-3-yl)methyl)pyrrolidin-3-yl)acetamido)spiro[3.3]heptan-2-yl)amino)-N-(6-(dimethylamino)pyridazin-3-yl)-6-(isopropylamino)nicotinamide]
> 100 | > 85 | > 85 | CNc1ccc(C(=O)Nc2ccc(N(C)C)nn2)c(NCCCCCCNC(=O)CN2CCN(c3ccc(Nc4ncc5cc6n(c5n4)C4(CCCCC4)CNC6=O)nc3)CC2)n1 [CPD-644, N-(6-(dimethylamino)pyridazin-3-yl)-6-(methylamino)-2-((6-(2-(4-(6-((6′-oxo-7′,8′-dihydro-6′H-spiro[cyclohexane-1,9′-pyrazino[1′,2′:1,5]pyrrolo[2,3-d]pyrimidin]-2′-yl)amino)pyridin-3-yl)piperazin-1-yl)acetamido)hexyl)amino)nicotinamide]
< 50 | 55 to 85 | 55 to 85 | CC(=O)c1c(C)c2cnc(Nc3ccc(N4CCC5(CC4)CC5C(=O)N4CCC(Nc5nc(NC(C)C)ccc5C(=O)Nc5ccc(N(C)C)nn5)CC4)cn3)nc2n(C2CCCC2)c1=O (stereo not drawn) [CPD-407, 2-((1-(6-(6-((6-acetyl-8-cyclopentyl-5-methyl-7-oxo-7,8-dihydropyrido[2,3-d]pyrimidin-2-yl)amino)pyridin-3-yl)-6-azaspiro[2.5]octane-1-carbonyl)piperidin-4-yl)amino)-N-(6-(dimethylamino)pyridazin-3-yl)-6-(isopropylamino)nicotinamide]
> 100 | 55 to 85 | 55 to 85 | CNc1ccc(C(=O)Nc2ccc(N(C)C)nn2)c(NCCCCCC(=O)N2CCN(Cc3ccc(Nc4ncc(F)c(-c5cc(F)c6nc(C)n(C(C)C)c6c5)n4)nc3)CC2)n1 [CPD-603, N-(6-(dimethylamino)pyridazin-3-yl)-2-((6-(4-((6-((5-fluoro-4-(4-fluoro-1-isopropyl-2-methyl-1H-benzo[d]imidazol-6-yl)pyrimidin-2-yl)amino)pyridin-3-yl)methyl)piperazin-1-yl)-6-oxohexyl)amino)-6-(methylamino)nicotinamide]
> 100 | > 85 | > 85 | CC(C)Nc1ccc(C(=O)Nc2ccc(N(C)C)nn2)c(NC2CC3(CC(NC(=O)CN4CCN(Cc5ccc(Nc6ncc7cc8n(c7n6)C6(CCCCC6)CNC8=O)nc5)CC4)C3)C2)n1 (stereo not drawn) [CPD-558, N-(6-(dimethylamino)pyridazin-3-yl)-6-(isopropylamino)-2-((6-(2-(4-((6-((6′-oxo-7′,8′-dihydro-6′H-spiro[cyclohexane-1,9′-pyrazino[1′,2′:1,5]pyrrolo[2,3-d]pyrimidin]-2′-yl)amino)pyridin-3-yl)methyl)piperazin-1-yl)acetamido)spiro[3.3]heptan-2-yl)amino)nicotinamide]
> 100 | 55 to 85 | 55 to 85 | CNc1ccc(C(=O)Nc2ccc(N(C)C)nn2)c(NCCCCCC(=O)N2CCN(c3ccc(Nc4ncc5cc6n(c5n4)C4(CCCCC4)CNC6=O)nc3)CC2)n1 [CPD-635, N-(6-(dimethylamino)pyridazin-3-yl)-6-(methylamino)-2-((6-oxo-6-(4-(6-((6′-oxo-7′,8′-dihydro-6′H-spiro[cyclohexane-1,9′-pyrazino[1′,2′:1,5]pyrrolo[2,3-d]pyrimidin]-2′-yl)amino)pyridin-3-yl)piperazin-1-yl)hexyl)amino)nicotinamide]
> 100 | 55 to 85 | 55 to 85 | CNc1ccc(C(=O)Nc2ccc(N(C)C)nn2)c(NCCCCC(=O)N2CCN(c3ccc(Nc4ncc5cc6n(c5n4)C4(CCCCC4)CNC6=O)nc3)CC2)n1 [CPD-634, N-(6-(dimethylamino)pyridazin-3-yl)-6-(methylamino)-2-((5-oxo-5-(4-(6-((6′-oxo-7′,8′-dihydro-6′H-spiro[cyclohexane-1,9′-pyrazino[1′,2′:1,5]pyrrolo[2,3-d]pyrimidin]-2′-yl)amino)pyridin-3-yl)piperazin-1-yl)pentyl)amino)nicotinamide]
> 100 | > 85 | 55 to 85 | CNc1ccc(C(=O)Nc2ccc(N(C)C)nn2)c(NCCCCCNC(=O)CN2CCN(c3ccc(Nc4ncc5cc6n(c5n4)C4(CCCCC4)CNC6=O)nc3)CC2)n1 [CPD-643]
< 50 | 55 to 85 | 55 to 85 | CC(=O)c1c(C)c2cnc(Nc3ccc(N4CCN(C5CCN(C(=O)C67CC(Nc8nc(C)ccc8C(=O)Nc8ccc(N(C)C)nn8)(C6)C7)C5)CC4)cn3)nc2n(C2CCCC2)c1=O (stereo not drawn) [CPD-590, 2-((3-(3-(4-(6-((6-acetyl-8-cyclopentyl-5-methyl-7-oxo-7,8-dihydropyrido[2,3-d]pyrimidin-2-yl)amino)pyridin-3-yl)piperazin-1-yl)pyrrolidine-1-carbonyl)bicyclo[1.1.1]pentan-1-yl)amino)-N-(6-(dimethylamino)pyridazin-3-yl)-6-methylnicotinamide]
< 50 | 55 to 85 | 55 to 85 | CC(=O)c1c(C)c2cnc(Nc3ccc(N4CCN(C5CCN(C(=O)[C@H]6CC[C@H](Nc7nc(C8CC8)ccc7C(=O)Nc7ccc(N(C)C)nn7)CC6)C5)CC4)cn3)nc2n(C2CCCC2)c1=O (stereo partly drawn) [CPD-573, 2-((trans-4-(3-(4-(6-((6-acetyl-8-cyclopentyl-5-methyl-7-oxo-7,8-dihydropyrido[2,3-d]pyrimidin-2-yl)amino)pyridin-3-yl)piperazin-1-yl)pyrrolidine-1-carbonyl)cyclohexyl)amino)-6-cyclopropyl-N-(6-(dimethylamino)pyridazin-3-yl)nicotinamide]
> 100 | 55 to 85 | 55 to 85 | CNc1ccc(C(=O)Nc2ccc(N(C)C)nn2)c(NCCCCCCCCNC(=O)CN2CCN(c3ccc(Nc4ncc5cc(C(=O)N(C)C)n(C6CCCC6)c5n4)nc3)CC2)n1 [CPD-630, 7-cyclopentyl-2-((5-(4-(2-((8-((3-((6-(dimethylamino)pyridazin-3-yl)carbamoyl)-6-(methylamino)pyridin-2-yl)amino)octyl)amino)-2-oxoethyl)piperazin-1-yl)pyridin-2-yl)amino)-N,N-dimethyl-7H-pyrrolo[2,3-d]pyrimidine-6-carboxamide]
< 50 | > 85 | 55 to 85 | CCc1ccc(C(=O)Nc2ccc(N(C)C)nn2)c(NC23CC(C(=O)N4CCC(N5CCN(c6ccc(Nc7ncc8c(C)c(C(C)=O)c(=O)n(C9CCCC9)c8n7)nc6)CC5)C4)(C2)C3)n1 (stereo not drawn) [CPD-577, 2-((3-(3-(4-(6-((6-acetyl-8-cyclopentyl-5-methyl-7-oxo-7,8-dihydropyrido[2,3-d]pyrimidin-2-yl)amino)pyridin-3-yl)piperazin-1-yl)pyrrolidine-1-carbonyl)bicyclo[1.1.1]pentan-1-yl)amino)-N-(6-(dimethylamino)pyridazin-3-yl)-6-ethylnicotinamide]
< 50 | 55 to 85 | 55 to 85 | CC(=O)c1c(C)c2cnc(Nc3ccc(CN4CCN(C(C)C(=O)NC5CC6(C5)CC(Nc5nc(NC(C)C)ccc5C(=O)Nc5ccc(N(C)C)nn5)C6)CC4)cn3)nc2n(C2CCCC2)c1=O (stereo not drawn) [CPD-585, 2-((6-(2-(4-((6-((6-acetyl-8-cyclopentyl-5-methyl-7-oxo-7,8-dihydropyrido[2,3-d]pyrimidin-2-yl)amino)pyridin-3-yl)methyl)piperazin-1-yl)propanamido)spiro[3.3]heptan-2-yl)amino)-N-(6-(dimethylamino)pyridazin-3-yl)-6-(isopropylamino)nicotinamide]
> 100 | 55 to 85 | 55 to 85 | CNc1ccc(C(=O)Nc2ccc(N(C)C)nn2)c(NCCCCCCCC(=O)N2CCN(c3ccc(Nc4ncc5cc(C(=O)N(C)C)n(C6CCCC6)c5n4)nc3)CC2)n1 [CPD-621, 7-cyclopentyl-2-((5-(4-(8-((3-((6-(dimethylamino)pyridazin-3-yl)carbamoyl)-6-(methylamino)pyridin-2-yl)amino)octanoyl)piperazin-1-yl)pyridin-2-yl)amino)-N,N-dimethyl-7H-pyrrolo[2,3-d]pyrimidine-6-carboxamide]
